From publication PMC9942839, “Structural remodeling of AAA+ ATPase p97 by adaptor protein ASPL facilitates posttranslational methylation by METTL21D” (Proceedings of the National Academy of Sciences of the …, 2023)
Numbering of substitutions follows the chain as printed.

How the values were obtained:
[1] = molecular target: T1, AtMETTL21D (Arabidopsis thaliana, UniProt F4HUD6, C19S/L26V, form not given); assay: methylation assay, anti-Kme3 western blot; assay type: biochemical; settings: co-substrate AtCDC48; weak gain of trimethylation; 20 mM HEPES pH 8.0, 200 mM NaCl, RT
T1 construct: gene At1g08125; E. coli; His tag cleaved by TEV
T1 sequence (F4HUD6 15-239 C19S/L26V): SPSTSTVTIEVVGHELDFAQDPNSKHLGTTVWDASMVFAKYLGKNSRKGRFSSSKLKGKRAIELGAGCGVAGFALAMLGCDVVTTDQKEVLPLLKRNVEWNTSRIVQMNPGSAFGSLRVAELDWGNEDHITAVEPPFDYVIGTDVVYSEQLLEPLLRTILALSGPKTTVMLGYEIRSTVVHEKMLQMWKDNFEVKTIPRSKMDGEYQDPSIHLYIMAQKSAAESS

[2] = molecular target: T2, AtMETTL21D (Arabidopsis thaliana, UniProt F4HUD6); assay: methylation assay, anti-monomethyl-lysine western blot; assay type: biochemical; settings: automethylation and monomethylation of AtCDC48 in the presence of PUX1; pH 8.0, RT
T2 construct: gene At1g08125; E. coli; His tag cleaved by TEV
T2 sequence (F4HUD6 15-239): T1 sequence (F4HUD6 15-239 C19S/L26V) with S5C, V12L

[3] = molecular target: T3, METTL21D in p97-ND1:ASPL-CΔ:METTL21D (Homo sapiens, UniProt Q9H867); assay: X-ray crystal structure, […] Å; assay type: binding; settings: METTL21D active site; crystallized with SAM, product of p97 Lys315 trimethylation; contacts Asp96, Trp126
T3 construct: gene VCPKMT; 1:1:1 heterotrimer ~110 kDa; METTL21D His tag cleaved by TEV; p97-ND1 fragment lacking D2 domain, Lys315 trimethylated; ASPL-CΔ residues 313-500; E. coli; with Transitional endoplasmic reticulum ATPase; Tether containing UBX domain for GLUT4
T3 sequence (Q9H867 2-229 limits assumed, stated change not applied): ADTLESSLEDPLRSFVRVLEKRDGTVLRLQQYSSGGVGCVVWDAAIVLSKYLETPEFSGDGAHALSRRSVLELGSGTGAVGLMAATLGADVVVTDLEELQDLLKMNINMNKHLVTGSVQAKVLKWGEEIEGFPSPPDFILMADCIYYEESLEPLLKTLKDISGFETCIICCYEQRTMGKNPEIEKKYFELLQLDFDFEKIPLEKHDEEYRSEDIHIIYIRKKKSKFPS
T3 sequence (P55072 2-480 partner limits assumed): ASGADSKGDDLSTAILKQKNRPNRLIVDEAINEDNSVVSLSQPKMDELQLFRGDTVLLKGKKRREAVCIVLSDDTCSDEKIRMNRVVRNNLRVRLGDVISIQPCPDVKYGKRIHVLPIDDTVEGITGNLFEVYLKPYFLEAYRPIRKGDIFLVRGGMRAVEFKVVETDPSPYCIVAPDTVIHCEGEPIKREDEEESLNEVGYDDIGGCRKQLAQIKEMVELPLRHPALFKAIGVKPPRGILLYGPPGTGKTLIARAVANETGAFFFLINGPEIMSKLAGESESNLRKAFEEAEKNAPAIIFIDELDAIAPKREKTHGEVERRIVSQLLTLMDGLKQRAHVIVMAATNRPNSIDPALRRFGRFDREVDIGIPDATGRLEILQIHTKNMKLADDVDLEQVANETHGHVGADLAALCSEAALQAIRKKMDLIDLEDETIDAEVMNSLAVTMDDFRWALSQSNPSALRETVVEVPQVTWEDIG
T3 sequence (Q9BZE9 313-500 partner): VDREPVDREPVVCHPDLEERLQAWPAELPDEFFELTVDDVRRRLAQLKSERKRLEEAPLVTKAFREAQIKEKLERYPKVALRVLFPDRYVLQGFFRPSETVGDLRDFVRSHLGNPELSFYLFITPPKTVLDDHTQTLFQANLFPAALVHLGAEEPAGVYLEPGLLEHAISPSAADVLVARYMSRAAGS

| SMILES | methylation assay, anti-Kme3 western blot [1] | methylation assay, anti-monomethyl-lysine western blot [2] | X-ray crystal structure, 3.0 Å [3] |
| --- | --- | --- | --- |
| C[S+](CC[C@H](N)C(=O)O)C[C@H]1O[C@@H](n2cnc3c(N)ncnc32)[C@H](O)[C@@H]1O (stereo partly drawn) [S-adenosyl-methionine] | substitution of leucine with valine in plant AtMETTL21D resulted in gain of trimethylation activity | AtMETTL21D monomethylated itself, as well as AtCDC48 in the presence of PUX1 |  |
| Nc1ncnc2c1ncn2[C@@H]1O[C@H](CSCC[C@H](N)C(=O)O)[C@@H](O)[C@H]1O [S-adenosyl-L-homocysteine] |  |  | the active site of METTL21D contains a S-adenosyl-L-homocysteine (SAH) molecule |
